Data from PubChem BioAssay AID179 (DTP/NCI, 2004).
Values joined by “and” are separate entries in the source; they are usually repeats but may differ in a detail not shown here. Identical values can stand only once. Active and inactive are the calls of the source.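 The calls were made as follows: active = compounds giving half or more protection of infected cells from virus-caused growth loss, again on retest; inactive = the rest.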 Where a SMILES comes first, the peptide text is derived from it. [ ]: non-standard residue; d: D form. The star is where a group is joined. Cbz = O=C(OCc1ccccc1)*; Aib = CC(C)(N)C(=O)O; OBn = c1ccc(CO*)cc1

Test system: CEM cells HIV-1 protection, formazan growth assay
Assay: NCI AIDS Antiviral Assay
Details: for IC50: measured here: growth of uninfected CEM cells
In short: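 Steps: treat uninfected and HIV-1-infected human CEM cells at five drug levels; quantify growth by soluble formazan; retest any compound reaching 50% protection; classify actives from the retest.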

Structure (SMILES)	EC50	IC50	outcome
N#Cc1cc([N+](=O)[O-])ccc1NC(=O)C(=O)C(C(=O)c1ccc2ccccc2c1)C1OCc2ccccc21 (stereo not given)	> 70.8 µM	37.2 µM	
Nc1nnc(Sc2ccc([N+](=O)[O-])cc2)s1	> 195 µM	11.7 µM	
COc1cc2c3c(c1)[nH]c(=S)n3C(=O)C(c1ccccc1)S2 (stereo not given)	> 200 µM	40.7 µM	
Clc1ccc(CN2COc3c(cc(Cl)c4cccnc34)C2)cc1Cl	> 200 µM	1.07 µM	
COc1nc(N=P(c2ccccc2)(c2ccccc2)c2ccccc2)cc(=O)n1C			inactive
Cc1c(C)c2c(c(N)c1C#N)C(=O)N(CCc1ccccc1)C2=O	> 200 µM	170 µM	
Cc1cn(C2CC(OC(c3ccccc3)(c3ccccc3)c3ccccc3)C(CO)O2)c(=O)[nH]c1=O (stereo not given)	> 200 µM	10.5 µM	
C=C(CN(C)C)C(=O)c1ccc(Oc2ccccc2)cc1	> 200 µM	3.47 µM	
Cc1cccc(C(C)(C)C)c1NC(=O)C(=O)C(C(=O)/C=C\c1ccccc1)C1OC(=O)c2ccccc21 (stereo not given)	> 214 µM	58.9 µM	
CC(C)(O)[C@@H]1CC[C@@]2(C)CCC[C@H](O)[C@H]2C1			inactive
CCOP1(=O)C=C(Sc2ccc([N+](=O)[O-])cc2[N+](=O)[O-])C(C)(C)O1 (stereo not given)	> 200 µM	110 µM	
COC(=O)C1=C(OC)C(C(=O)OC)[C@@]2(C)C(C(=O)OC)=C(OC)C(C(=O)OC)[C@@]12C (stereo not given in full)	> 417 µM	> 417 µM	
COc1ccc(-c2c(C#N)c(N)n(C3OCC(OC(C)=O)C(OC(C)=O)C3OC(C)=O)c(=S)c2C#N)cc1 (stereo not given)	> 200 µM	20.9 µM and 29.5 µM	
CC(C)=CCNc1ncnc2c1ncn2C1OC(CO)C(O)C1O (stereo not given)	> 200 µM	15.5 µM	
C=CC(=O)Nc1ccccc1CC(c1c[nH]c2ccccc12)c1c[nH]c2ccccc12	> 36.3 µM	25.7 µM	
Cc1ccc(S(=O)(=O)NC(C)C(=O)O)cc1 (stereo not given)			inactive
CCOC(=O)C1=C(C)C2C3C(=O)OC(=O)C3C1(C)C1C(=O)OC(=O)C21 (stereo not given)			inactive
O=C(O)c1ccccc1O	> 1820 µM	692 µM	inactive
COC1/C=C/OC2(C)Oc3c(C)c(O)c4c(O)c(c(/C=N/N5C(C)CN(Cc6ccc([N+](=O)[O-])cc6)CC5C)c(O)c4c3C2=O)NC(=O)/C(C)=C\C=C\C(C)C(O)C(C)C(O)C(C)C(OC(C)=O)C1C (stereo not given)	> 200 µM	7.59 µM	
CCCc1cc(=O)oc2c3c(c4c(c12)OC(C)(C)C=C4)O[C@H](C)[C@H](C)[C@@H]3O	> 87.1 µM	6.46 µM	

Structure (SMILES)	EC50	IC50	outcome
CCC1(c2ccc(N3C(=O)c4cccc5cc([N+](=O)[O-])cc(c45)C3=O)cc2)CCC(=O)NC1=O (stereo not given)	> 151 µM	13.5 µM	
Cc1ccc(/C=N/Nc2cc(C)c3cccc(C)c3n2)s1	> 200 µM	5.75 µM	
Cc1ccc(Nc2[nH]c(=O)[nH]c(=O)c2N=O)cc1	> 200 µM	> 200 µM	
COc1cc(C(=O)C2CC3(CCC2(O)c2cc(OC)c(OC)c(OC)c2)CC(=O)Nc2ccccc2C3=O)cc(OC)c1OC (stereo not given)	> 200 µM	> 200 µM	
N.N.N.N.[Cl-].[Co+3].[N-]=[N+]=[N-].[N-]=[N+]=[N-]			inactive
C=CCOc1ccc(C2c3c([nH][nH]c3=O)CC(C)(O)C2C(=O)OC)cc1OC (stereo not given)	> 200 µM	> 200 µM	
COC1OC(OC)C2C(c3c(C)cc(C)cc3C)=NOC12 (stereo not given)	> 234 µM	> 234 µM	
CS(=O)(=O)CCC(N)P(=O)(O)O (stereo not given)	> 200 µM	> 200 µM	
COc1cc(OC)c2c(=O)c3c([N+](=O)[O-])cccc3n(C)c2c1	> 100 µM	> 100 µM	
O=C1N[C@H]2c3c(Cl)sc(Cl)c3/C(=N/O)[C@H]2O1	> 200 µM	95.5 µM	
COc1ccc(/C=C2\SC(=S)N(/C=C/c3nc4ccccc4[nH]c3=O)C2=O)cc1OC	> 200 µM	32.4 µM	
O=C(O)c1c[nH]n2c(=S)ncnc12	> 871 µM	> 871 µM	
O=[N+]([O-])c1[nH]cnc1S	> 200 µM	> 200 µM	
CCOP(=O)(OCC)/C(C#N)=C/c1ccc([N+](=O)[O-])cc1	> 813 µM	575 µM	
CN(C)C(=O)c1ccc(N=Nc2c(O)c3ccccc3[nH]c2=O)cc1	> 200 µM	36.3 µM	
COc1cc2c(cc1OC)-c1nc(N)sc1CC2	> 38 µM	> 38 µM	
O=c1c2ccccc2oc2nccnc12			inactive
Cn1cc(NC(=O)c2cc(NC(=O)Nc3cc(C(=O)Nc4cc(C(=O)Nc5ccc6cc(S(=O)(=O)O)cc(S(=O)(=O)O)c6c5)n(C)c4)n(C)n3)nn2C)cc1C(=O)Nc1ccc2cc(S(=O)(=O)O)cc(S(=O)(=O)O)c2c1	6.17 µM	> 100 µM	
CC(NC(=O)C(C)(C)NC(=O)C(CC(=O)OCc1ccccc1)NC(=O)OCc1ccccc1)C(N)=O (stereo not given) (Cbz-Asp(OBn)-[Aib]-Ala-NH2; configuration not given here)	> 200 µM	> 200 µM	
C=C(CCC(Cl)[C@@H]1COC(/C=C/C)O1)[Si](C)(C)C (stereo not given in full)	> 123 µM	> 123 µM	
